# pIC50: −log10 of the molar value.
# Target: T1, human CB1 receptor (Homo sapiens, UniProt P21554)
# T1 construct: expressed in transfected cells; membranes
# Experiment: Cannabinoid Receptor-1 functional assay: inhibition of CP55940-induced [35S]GTPγS binding to membranes of CHO-K1 cells expressing human CB1
# Assay type: biochemical
# Conditions: 3 nM CP55940, hCB1 membranes, [35S]GTPγS SPA; read-out: IC50 value for antagonizing a CB1 receptor agonist
# Source text: Transfection and Cell Culture—The cDNA encoding the human CB1 (Cannabinoid Receptor-1) receptor (GenBank accession number NM_016083) was cloned from a human adipose tissue cDNA library and cloned into the eukaryotic expression vector pcDNA3.1 (Invitrogen).
# Chinese Hamster Ovary cells (CHO-K1) stably expressing recombinant human CB1 were generated by transfecting the plasmid containing the coding sequence of the human CB1 receptor in CHO-K1 cells, using lipofectamin, according to the manufacturer instructions. Resistant clones were selected in the presence of 600 μg/ml G418 (Life technology). Stably transfected CHO-K1 cells were maintained in Ham's F-12 culture medium (Invitrogen), supplemented with 10% fetal calf serum (Invitrogen), 100 U/ml penicillin, 100 μg/ml streptomycin (Life Technology), and 600 μg/ml G418.
# Cannabinoid Receptor-1 Functional Assay.
# Functional activities of the above examples of compounds of the invention were assessed in vitro by measuring their ability to inhibit CP55940-induced [^35S]GTPγS binding to membranes prepared from CHO-K1 cells expressing the human CB1 receptor (described in Transfection and Cell Culture). CP55940 is a well known non-selective CB1 and CB2 receptor agonist (e.g Felder et al., 1995, Molecular Pharmacology, (48) 443-50). Membranes were prepared by a standard procedure. Briefly, cells were harvested using 10 mM EDTA and collected by centrifugation. Pelleted cells were homogenized in ice-cold 20 mM Hepes (pH 7.4),10 mM EDTA and protease inhibitors (Complete protease inhibitor cocktail tablet, Roche) using an Ultra Turrax Homogenizer. The homogenate was centrifuged at 14 000 rpm for 45 min. at 4° C. The resultant pellet was resuspended in the same buffer but with only 0.1 mM EDTA and was again centrifuged at 14 000 rpm for 45 min. at 4° C. The resulting pellet (membranes) was resuspended in 20 mM Hepes (pH 7.4), 0.1 mM EDTA, 2 mM MgCl2 and protease inhibitors and protein concentration was determined by Micro BCA Protein Assay Reagent Kit (Pierce Biotechnology) according to the manufacturer instructions. The [^35S]GYPγS SPA (Scintillation Proximity Assay) binding assay was performed by incubating 5 μg/well hCB1-membranes with 1 nM [^35S]GYPγS (Perkin Elmer—NEG 030H) in the presence of 3 nM of CP55940 and various concentrations of the test compounds at room temperature for 1 hr in 96-well microtiter plates. 0.4 mg/well SPA beads (PVT-WGA; RPNQ0001 Amersham Pharmacia Biotech) were then added and the incubation continued for further 30 min. on an orbital shaker. The assay buffer contained 50 mM HEPES (pH 7.5), 50 mM NaCl, 2.5 mM MgCl2, 0.1% BSA, 1 μM GDP and 100 μg/ml Saponin. Microtiter plates were centrifuged at 1500 rpm for 5 min. and radioactivity was read immediately using a Topcounter (PerkinElmer Life Sciences). Data were analyzed and IC50 values determined by non-linear regression using the Prism software (GraphPad Software, San Diego).
# T1 sequence (P21554 whole entry): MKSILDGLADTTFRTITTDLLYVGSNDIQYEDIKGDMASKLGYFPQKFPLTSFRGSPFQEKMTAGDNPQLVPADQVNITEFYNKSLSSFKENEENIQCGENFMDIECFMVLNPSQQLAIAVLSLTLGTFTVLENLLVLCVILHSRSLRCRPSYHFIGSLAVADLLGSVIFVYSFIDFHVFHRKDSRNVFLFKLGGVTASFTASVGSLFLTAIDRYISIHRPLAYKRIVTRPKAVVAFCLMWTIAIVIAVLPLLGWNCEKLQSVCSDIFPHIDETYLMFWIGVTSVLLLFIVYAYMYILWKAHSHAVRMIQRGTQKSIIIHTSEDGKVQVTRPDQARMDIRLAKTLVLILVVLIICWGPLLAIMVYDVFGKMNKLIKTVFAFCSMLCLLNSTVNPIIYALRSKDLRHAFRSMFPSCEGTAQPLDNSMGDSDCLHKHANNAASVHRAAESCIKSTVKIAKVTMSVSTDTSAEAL
row,SMILES,pIC50
1,"CC(NC(=O)c1nn(-c2ccccc2Cl)c(-c2ccc(Cl)cc2)c1Cc1nnn[nH]1)c1ccc(C(F)(F)F)c(F)c1 (stereo not drawn) [[2.10], 5-(4-Chloro-phenyl)-1-(2-chloro-phenyl)-4-(1H-tetrazol-5-ylmethyl)-1H-pyrazole-3-carboxylic acid [1-(3-fluoro-4-trifluoromethyl-phenyl)-ethyl]-amide]",> 6.52
2,"CCC(NC(=O)c1nn(-c2ccccc2Cl)c(-c2ccc(Cl)cc2)c1Cc1nnn[nH]1)c1ccc(Br)cc1 (stereo not drawn) [[2.11], 1-(2-Chloro-phenyl)-5-(4-chloro-phenyl)-4-(1H-tetrazol-5-ylmethyl)-1H-pyrazole-3-carboxylic acid [1-(4-bromo-phenyl)-propyl]-amide]",> 6.52
3,"C[C@@H](NC(=O)c1nn(-c2ccccc2Cl)c(-c2ccc(Cl)cc2)c1Cc1nnn[nH]1)c1cccc(C(F)(F)F)c1 [[2.12], 1-(2-Chloro-phenyl)-5-(4-chloro-phenyl)-4-(1H-tetrazol-5-ylmethyl)-1H-pyrazole-3-carboxylic acid [(R)-1-(3-trifluoromethyl-phenyl)-ethyl]-amide]",> 6.52
4,"CC(NC(=O)c1nn(-c2ccccc2Cl)c(-c2ccc(Cl)cc2)c1Cc1nnn[nH]1)c1ccc(Cl)c(Cl)c1 (stereo not drawn) [[2.13], 1-(2-Chloro-phenyl)-5-(4-chloro-phenyl)-4-(1H-tetrazol-5-ylmethyl)-1H-pyrazole-3-carboxylic acid [1-(3,4-dichloro-phenyl)-ethyl]-amide]",> 6.52
5,"C[C@H](c1ccc(C(F)(F)F)cc1)N(C)C(=O)c1nn(-c2ccccc2Cl)c(-c2ccc(Cl)cc2)c1Cc1nnn[nH]1 [[2.14], 1-(2-Chloro-phenyl)-5-(4-chloro-phenyl)-4-(1H-tetrazol-5-ylmethyl)-1H-pyrazole-3-carboxylic acid methyl-[(R)-1-(4-trifluoromethyl-phenyl)-ethyl]-amide]",> 6.52
6,"CCC(NC(=O)c1nn(-c2ccccc2Cl)c(-c2ccc(Cl)cc2)c1Cc1nnn[nH]1)c1ccc(C(F)(F)F)cc1 (stereo not drawn) [[2.15], 1-(2-Chloro-phenyl)-5-(4-chloro-phenyl)-4-(1H-tetrazol-5-ylmethyl)-1H-pyrazole-3-carboxylic acid [1-(4-trifluoromethyl-phenyl)propyl]-amide]",> 6.52
7,"CC(NC(=O)c1nn(-c2ccccc2Cl)c(-c2ccc(Cl)cc2)c1Cc1nnn[nH]1)c1ccc(F)c(F)c1 (stereo not drawn) [[2.16], 1-(2-Chloro-phenyl)-5-(4-chloro-phenyl)-4-(1H-tetrazol-5-ylmethyl)-1H-pyrazole-3-carboxylic acid [1-(3,4-difluoro-phenyl)-ethyl]-amide]",> 6.52
8,"C[C@@H](NC(=O)c1nn(-c2ccccc2Cl)c(-c2ccc(Cl)cc2)c1Cc1nnn[nH]1)c1cccc(F)c1 [[2.17], 1-(2-Chloro-phenyl)-5-(4-chloro-phenyl)-4-(1H-tetrazol-5-ylmethyl)-1H-pyrazole-3-carboxylic acid [(R)-1-(3-fluoro-phenyl)-ethyl]-amide]",> 6.52
9,"CC(NC(=O)c1nn(-c2ccccc2Cl)c(-c2ccc(Cl)cc2)c1Cc1nnn[nH]1)c1cc(F)cc(F)c1 (stereo not drawn) [[2.18], 1-(2-Chloro-phenyl)-5-(4-chloro-phenyl)-4-(1H-tetrazol-5-ylmethyl)-1H-pyrazole-3-carboxylic acid [1-(3,5-difluoro-phenyl)-ethyl]-amide]",> 6.52
10,"CC(NC(=O)c1nn(-c2ccccc2Cl)c(-c2ccc(Cl)cc2)c1Cc1nn[nH]n1)c1ccc(Cl)c(F)c1 (stereo not drawn) [[2.19], 5-(4-Chloro-phenyl)-1-(2-chloro-phenyl)-4-(2H-tetrazol-5-ylmethyl)-1H-pyrazole-3-carboxylic acid [1-(4-chloro-3-fluoro-phenyl)-ethyl]-amide]",> 6.52
11,"CC(NC(=O)c1nn(-c2ccccc2Cl)c(-c2ccc(Cl)cc2)c1Cc1nn[nH]n1)c1ccc(Br)cc1F (stereo not drawn) [[2.20], 1-(2-Chloro-phenyl)-5-(4-chloro-phenyl)-4-(2H-tetrazol-5-ylmethyl)-1H-pyrazole-3-carboxylic acid [1-(4-bromo-2-fluoro-phenyl)-ethyl]-amide]",> 6.52
12,"C[C@@H](NC(=O)c1nn(-c2ccccc2Cl)c(-c2ccc(Cl)cc2)c1Cc1nn[nH]n1)c1ccc(Cl)c(Cl)c1 [[2.22], 1-(2-Chloro-phenyl)-5-(4-chloro-phenyl)-4-(2H-tetrazol-5-ylmethyl)-1H-pyrazole-3-carboxylic acid [(R)-1-(3,4-dichloro-phenyl)-ethyl]-amide]",> 6.52

# Next, values leading:
row,pIC50,SMILES
1,> 6.52,"C[C@@H](NC(=O)c1nn(-c2ccccc2Cl)c(-c2ccc(Cl)cc2)c1Cc1nn[nH]n1)c1ccc(Cl)c(F)c1 [[2.23], 1-(2-Chloro-phenyl)-5-(4-chloro-phenyl)-4-(2H-tetrazol-5-ylmethyl)-1H-pyrazole-3-carboxylic acid [(R)-1-(3-fluoro-4-chloro-phenyl)-ethyl]-amide]"
2,> 6.52,"C[C@@H](NC(=O)c1nn(-c2ccccc2Cl)c(-c2ccc(Cl)cc2)c1Cc1nn[nH]n1)c1ccc(F)c(Cl)c1 [[2.24], 1-(2-Chloro-phenyl)-5-(4-chloro-phenyl)-4-(2H-tetrazol-5-ylmethyl)-1H-pyrazole-3-carboxylic acid [(R)-1-(3-chloro-4-fluoro-phenyl)-ethyl]-amide]"
3,> 6.52,"C[C@@H](NC(=O)c1nn(-c2ccccc2Cl)c(-c2ccc(Cl)cc2)c1Cc1nnn[nH]1)c1cccc(Cl)c1 [[2.25], 1-(2-Chloro-phenyl)-5-(4-chloro-phenyl)-4-(1H-tetrazol-5-ylmethyl)-1H-pyrazole-3-carboxylic acid [(R)-1-(3-chloro-phenyl)-ethyl]-amide]"
4,> 6.52,"C[C@@H](NC(=O)c1nn(-c2ccccc2Cl)c(-c2ccc(Cl)cc2)c1Cc1nn[nH]n1)c1ccc(OC(F)(F)F)cc1 [[2.26], 1-(2-Chloro-phenyl)-5-(4-chloro-phenyl)-4-(2H-tetrazol-5-ylmethyl)-1H-pyrazole-3-carboxylic acid [(R)-1-(4-trifluoromethoxyl-phenyl)-ethyl]-amide]"
5,> 6.52,"C[C@H](c1ccc(OC(F)(F)F)cc1)N(C)C(=O)c1nn(-c2ccccc2Cl)c(-c2ccc(Cl)cc2)c1Cc1nnn[nH]1 [[2.27], 1-(2-Chloro-phenyl)-5-(4-chloro-phenyl)-4-(1H-tetrazol-5-ylmethyl)-1H-pyrazole-3-carboxylic acid methyl-[(R)-1-(4-trifluoromethoxy-phenyl)-ethyl]-amide]"
6,> 6.52,"C[C@H](c1ccc(F)c(Cl)c1)N(C)C(=O)c1nn(-c2ccccc2Cl)c(-c2ccc(Cl)cc2)c1Cc1nnn[nH]1 [[2.28], 1-(2-Chloro-phenyl)-5-(4-chloro-phenyl)-4-(1H-tetrazol-5-ylmethyl)-1H-pyrazole-3-carboxylic acid methyl-[(R)-1-(3-chloro-4-fluoro-phenyl)-ethyl]-amide]"
